Laboratory results from patent US12625141B2, “Fluorescent dye, preparation method and uses thereof” (FLUORESCENCE DIAGNOSIS (SHANGHAI) BIOTECH COMPANY LTD., priority 2019, dated 2026).

Columns and labels:
[1] = Fluorescence emission in glycerol versus methanol (viscosity response); assay type: physicochemical; conditions: for Glycerol/methanol fluorescence intensity ratio: 1×10^-5 M in glycerol and methanol, maximum excitation wavelength of each dye; for Emission (nm): 1×10^-5 M, maximum excitation wavelength of each fluorescent dye
[2] = tested on: F30-8Pepper-5 RNA aptamer; assay: Binding to RNA aptamer, optical properties after binding; conditions: for Em/nm / Ex/nm / ε / QY (−): after binding to RNA aptamer; for QY (−): relative method with Rhodamine 6G as the standard; for Kd: binding to RNA aptamer; for Activation Multiple: fluorescence activation after binding to RNA aptamer
RNA aptamer in cells = assay: Labeling intracellular RNA aptamers in cells; assay type: cell-based; conditions: for Fluorescence of cells not expressing the RNA aptamer: cells not expressing the RNA aptamer (FIG. 17B); for Fluorescence of cells transcribing the RNA aptamer: cells transcribing the RNA aptamer (FIG. 17A)
[3] = Fluorescence emission at different viscosity conditions in diethanol-glycerol mixed solution; assay type: physicochemical; conditions: 1×10^−5 M, excitation at 480 nm
[4] = tested on: ACTB-4Pepper RNA aptamer (skeleton protein mRNA) in 293T/17 cell line; assay: Labeling intracellular mRNA, flow detection; assay type: cell-based; conditions: 0.2 μM in PBS, incubated for 5 minutes
Description: FIGS. 18A and 18B are the application of molecular rotors III-3, III-43 in labeling intracellular mRNA.

SMILES | Glycerol/methanol fluorescence intensity ratio [1] | Emission (nm) [1] [nm] | also measured
CN(CCO)c1ccc2cc(/C=C(\C#N)c3ccc(C#N)cc3)sc2c1 [III-18] | 978 | 595 | Em/nm [2]: 599 nm; Ex/nm [2]: 515 nm; ε [2]: 54400 M⁻¹ cm⁻¹; QY (−) [2]: 0.43; Kd [2]: 18 nM; Activation Multiple [2]: 708; Fluorescence of cells not expressing the RNA aptamer (RNA aptamer in cells): no fluorescence; Fluorescence of cells transcribing the RNA aptamer (RNA aptamer in cells): bright fluorescence
CN(CCO)c1cc2sc3cc(/C=C(\C#N)c4ccc(C#N)cc4)sc3c2s1 [III-28] | 559 | 662 | Sensitivity of fluorescence intensity to viscosity [3]: sensitive to viscosity
N#C/C(=C\c1ccc(-c2ccc(N3CCOCCOCCOCCOCC3)cc2)s1)c1ccc(C#N)cc1 [III-24] | 596 | 662 | –
CCN(CC)CCN(C)c1ccc(/C=C(\C#N)c2ccc(C#N)cc2)cn1 [III-9] | 920 | 490 | –
CN(C)c1cc2sc3cc(/C=C(\C#N)c4ccc([S+](C)[O-])cc4)sc3c2s1 (centres unmarked) [III-30] | 756 | 660 | –
CN(C)c1ccc(/C=C(\C#N)c2ccc(C#N)cc2)nc1 [III-10] | 1620 | 520 | –
CN(CCO)c1ccc(/C=C(\C#N)c2ccc(C#N)cn2)cc1 [III-13] | 752 | 545 | –
CN(CCO)c1cc2sc(/C=C(\C#N)c3ccc(C#N)cc3)cc2s1 [III-21] | 544 | 620 | Em/nm [2]: 620 nm; Ex/nm [2]: 577 nm; ε [2]: 10000 M⁻¹ cm⁻¹; QY (−) [2]: 0.58; Kd [2]: 6.1 nM; Activation Multiple [2]: 12600; Fluorescence of cells not expressing the RNA aptamer (RNA aptamer in cells): no fluorescence; Fluorescence of cells transcribing the RNA aptamer (RNA aptamer in cells): bright fluorescence
CN(C)c1ccc(-c2ccc(/C=C(\C#N)c3ccc(C#N)cc3)cc2)cc1 [III-22] | 989 | 650 | –
CN(CCO)c1cc2c(s1)-c1sc(/C=C(\C#N)c3ccc(C#N)cc3)cc1[Si]2(C)C [III-33] | 691 | 705 | –
CN(CCO)c1cc2c(s1)-c1sc(/C=C(\C#N)c3ccc(C(N)=O)cc3)cc1C2(C)C [III-34] | 489 | 689 | Sensitivity of fluorescence intensity to viscosity [3]: sensitive to viscosity
CN(C)c1ccc(-c2ccc(/C=C(\C#N)c3ccc(C(=O)O)cc3)s2)s1 [III-26] | 368 | 676 | –
CN(C)c1ccc(-c2ccc(/C=C(\C#N)c3ccc(C#N)cc3)s2)cc1 [III-23] | 687 | 661 | –
CN(CCO)c1ncc(/C=C(\C#N)c2ccc(C#N)cc2)cn1 [III-11] | 869 | 470 | –
CN(CCO)c1ccc(/C=C(\C#N)c2ccc(C#N)cc2)cn1 [III-8] | 1168 | 495 | –
CNc1ccc2cc(/C=C(\C#N)c3ccc(C#N)cc3)sc2c1 [III-17] | 828 | 587 | –
CN(C)CCN(C)c1cnc(/C=C(\C#N)c2ccc(C#N)cc2)nc1 [III-12] | 855 | 542 | –

SMILES | Glycerol/methanol fluorescence intensity ratio [1] | Emission (nm) [1] [nm] | also measured
CCN(CC)c1ccc(-c2ccc(/C=C(\C#N)c3ccc(C#N)cc3)s2)s1 [III-25] | 783 | 678 | –
CCN(CC)c1ccc(/C=C(\C#N)c2ccc(C#N)cc2)cc1 [III-2] | 870 | 530 | –
COCCOCCOCCOCCOCCN(C)c1cc2c(s1)-c1sc(/C=C(\C#N)c3ccc(C#N)cc3)cc1C2(C)C [III-35] | 710 | 690 | –
N#C/C(=C\c1cc2c3c(c1)CCCN3CCC2)c1ccc(C#N)cc1 [III-15] | 1011 | 561 | –
CN(CCO)c1cc2c(s1)-c1sc(/C=C(\C#N)c3ccc(S(N)(=O)=O)cc3)cc1[Si]2(C)C [III-32] | 817 | 690 | –
CN(C)c1cc2sc(/C=C(\C#N)c3ccc(C#N)cc3)cc2s1 [III-19] | 991 | 620 | –
CN(CCO)c1ccc(/C=C(\C#N)c2ccc(C#N)cc2)cc1 [III-3] | 1025 | 530 | Sensitivity of fluorescence intensity to viscosity [3]: sensitive to viscosity; Em/nm [2]: 530 nm; Ex/nm [2]: 485 nm; ε [2]: 65300 M⁻¹ cm⁻¹; QY (−) [2]: 0.66; Kd [2]: 3.5 nM; Activation Multiple [2]: 3595; Fluorescence of cells not expressing the RNA aptamer (RNA aptamer in cells): no fluorescence; Fluorescence of cells transcribing the RNA aptamer (RNA aptamer in cells): bright fluorescence; Background fluorescence in cells [4]: no obvious background fluorescence; Labeling of skeleton protein mRNA in cell lines expressing target RNA [4]: could specifically mark the mRNA of skeleton protein
CN(CCO)c1ccc(/C=C(\C#N)c2cnc(C#N)cn2)cc1 [III-14] | 785 | 550 | –
CN1CCc2cc(/C=C(\C#N)c3ccc(C#N)cc3)ccc21 [III-16] | 491 | 555 | –
CCOC(=O)c1ccc(/C(C#N)=C/c2cc3sc4cc(N(C)C)sc4c3s2)cc1 [III-29] | 684 | 665 | –
CN(CCO)c1cnc(/C=C(\C#N)c2ccc(C#N)cc2)cn1 [III-6] | 1148 | 490 | Em/nm [2]: 497 nm; Ex/nm [2]: 435 nm; ε [2]: 54700 M⁻¹ cm⁻¹; QY (−) [2]: 0.57; Kd [2]: 6.7 nM; Activation Multiple [2]: 16601; Fluorescence of cells not expressing the RNA aptamer (RNA aptamer in cells): no fluorescence; Fluorescence of cells transcribing the RNA aptamer (RNA aptamer in cells): bright fluorescence
CCN(CC)c1cc2sc(/C=C(\C#N)c3ccc(C#N)cc3)cc2s1 [III-20] | 836 | 620 | –
CN(C)CCN(C)c1ccc(/C=C(\C#N)c2ccc(C#N)cc2)cc1 [III-4] | 892 | 521 | Sensitivity of fluorescence intensity to viscosity [3]: sensitive to viscosity; Em/nm [2]: 514 nm; Ex/nm [2]: 458 nm; ε [2]: 44100 M⁻¹ cm⁻¹; QY (−) [2]: 0.45; Activation Multiple [2]: 4748; Fluorescence of cells not expressing the RNA aptamer (RNA aptamer in cells): no fluorescence; Fluorescence of cells transcribing the RNA aptamer (RNA aptamer in cells): bright fluorescence
CN(C)c1ccc(/C=C(\C#N)c2ccc(C#N)cc2)cc1 [III-1] | 990 | 530 | –
CN(CCO)c1ccc(/C=C(\C#N)c2nc3ccccc3s2)cc1 [III-43, reference compound] | – | – | Background fluorescence in cells [4]: higher than III-3; Labeling of skeleton protein mRNA in cell lines expressing target RNA [4]: unclear whether ACTB was expressed
CN(C)CCN(C)c1cnc(/C=C(\C#N)c2ccc(C#N)cc2)cn1 [III-7] | 977 | 485 | Em/nm [2]: 485 nm; Ex/nm [2]: 443 nm; ε [2]: 49100 M⁻¹ cm⁻¹; QY (−) [2]: 0.42; Kd [2]: 8 nM; Activation Multiple [2]: 691; Fluorescence of cells not expressing the RNA aptamer (RNA aptamer in cells): no fluorescence; Fluorescence of cells transcribing the RNA aptamer (RNA aptamer in cells): bright fluorescence
